Measurements as given in patent publication US20210093521A1, “ANTIBACTERIAL ACTIVITY BY MG COMPLEX IN DEODORANT EMULSION FOR AEROSOLS, DEODORANT INCLUDING THE SAME AND USE OF THE DEODORANT” (Henkel AG & Co. KGaA, priority 2019, published 2021).

Key:
[1] = tested on: four bacteria that cause body odor; assay: membrane test, statements in text for all tested species; type: cell-based, Staphylococcus, Corynebacterium and Anaerococcus species; conditions: 14 h, agent or formulation in deodorant emulsion
[2] = tested on: bacterial germs known to cause body odor; assay: inhibition yard test, both germs tested; type: cell-based, Staphylococcus epidermidis, Staphylococcus hominis; conditions: agent within the deodorant emulsion
Source text: The inhibition yard test (or agar diffusion test) is used to investigate the growth-inhibiting effect of substances or mixtures of substances on the most important bacterial germs known to cause body odor. For this purpose, the pathogen-containing material is spread out on a culture medium (usually on an agar layer within a Petri dish). Filter paper discs impregnated with the mixture of active substances to be tested or with a control without an active substance are placed on the bacterial layer so that the active substances can penetrate the material and spread there. If the test substance has an antimicrobial effect, clearly visible circles, so-called inhibition yards, form around the filter paper discs due to the inhibition of the pathogen growth. These can be measured in mm diameter.
An inhibition yard test was performed with deodorant emulsions containing the following potential or actual bacterial growth inhibiting additives (the amounts are given in weight %)

Benzalkonium chloride
antibacterial effectiveness in the membrane test [1]: good effect
antibacterial effect in the deodorant emulsion (inhibition zone) [2]: good effect even in small quantities

CCCCCCC(CCCC)C(=O)O (stereo not drawn) [Isocarb, 2-butyloctanioc acid]
antibacterial effect in the deodorant emulsion (inhibition zone) [2]: no effect
